Tests used:
Assay in all cases: Test of herbicidal activities (greenhouse pot method)
Assay type in all cases: in vivo
Settings in all cases: single dose 300 g ai./h, treated before/after germination, 15 days later, greenhouse pot
Chenopodium album = tested on: Chenopodium album
Protocol: (§1) Garden soil was collected from regions where no pesticide is used and mixed uniformly with mountain soil and organic humus soil at a volume ratio of 1:1:1.
(§2) Multiple flowerpots each having a diameter of 9.5 cm and a depth of 8 cm were filled with the soil mixture to 3/4 volume. After water was added to the soil and the soil was completely wet, seeds of three grass weeds and three broadleaf weeds were inserted into the flowerpots (10-15 seeds for each weed). After seeding, the seeds were covered with fine oil mixed with sand and having a thickness of 1-3 cm. After the soil absorbed enough water and became saturated, excess water at the bottom of the flowerpot was drained, and the seeds were placed in a greenhouse for growth.
(§3) The weeds were watered every day so as to keep relative humidity of the soil at approximately 80%, growing temperature of 15-30° C., and air humidity above 50%. As the grass weeds grew to a 2-leaf stage and the broadleaf weeds was in a leaf period, spraying operation […] was performed on the stems and leafs. Planting before germination was performed before spraying. Soil processing was performed before the seeds of the weeds emerged.
(§4) Six target weeds comprising three grass weeds: Echinochloa crusgalli, Digiatria sanguinalis, Setaria viridis, along with three broadleaf weeds: Brassica juncea, Amaranthus retroflexus, Chenopodium album were treated before/after germination using a so-called “greenhouse pot” method with a single dose. A treating dose was 300 g ai./h. The process was repeated three times, and a blank control was used.
(§5) A 3WPSHZ-500 type automatic spraying tower with a spraying area of 0.132 m^2, a spray volume of 10 mL, working pressure of 0.2 MPa, and a liquid volume of 40% of maximum was used. After treatment, the weeds were placed in a greenhouse at a temperature of 15-30° C. Reaction symptoms of the weeds were regularly observed, and 15 days later, five reaction levels were determined according to the following inhibition intervals: 90≦A≦100%; 80≦B<90%, 60≦C<80%; 50≦D<60%, E<50%.

Amaranthus retroflexus = tested on: Amaranthus retroflexus
Protocol: as §1, §2, §3, §4, §5

Brassica juncea = tested on: Brassica juncea
Protocol: as §1, §2, §3, §4, §5

Digiatria sanguinalis = tested on: Digiatria sanguinalis
Protocol: as §1, §2, §3, §4, §5

Setaria viridis = tested on: Setaria viridis
Protocol: as §1, §2, §3, §4, §5

Echinochloa crusgalli = tested on: Echinochloa crusgalli
Protocol: as §1, §2, §3, §4, §5

| SMILES | Herbicidal activity Chenopodium album (inhibition level) (Chenopodium album) | Herbicidal activity Amaranthus retroflexus (inhibition level) (Amaranthus retroflexus) | Herbicidal activity Brassica juncea (inhibition level) (Brassica juncea) | Herbicidal activity Digiatria sanguinalis (inhibition level) (Digiatria sanguinalis) | Herbicidal activity Setaria viridis (inhibition level) (Setaria viridis) | Herbicidal activity Echinochloa crusgalli (inhibition level) (Echinochloa crusgalli) |
| --- | --- | --- | --- | --- | --- | --- |
| Cc1nn(-c2cc3nc(SCc4ccc(Cl)nc4)sc3cc2Cl)c(=O)n1C(F)F [Compound 1] | C (60 ≦ C < 80%) | A (90 ≦ A ≦ 100%) | B (80 ≦ B < 90%) | B (80 ≦ B < 90%) | D (50 ≦ D < 60%) | B (80 ≦ B < 90%) |
| Cc1nn(-c2cc3nc(SCc4ccccc4)sc3cc2Cl)c(=O)n1C(F)F [Compound 2] | E (E < 50%) | A (90 ≦ A ≦ 100%) | B (80 ≦ B < 90%) | C (60 ≦ C < 80%) | B (80 ≦ B < 90%) | C (60 ≦ C < 80%) |
| Cc1nn(-c2cc3nc(SCc4ccccc4Cl)sc3cc2Cl)c(=O)n1C(F)F [Compound 3] | E (E < 50%) | B (80 ≦ B < 90%) | C (60 ≦ C < 80%) | C (60 ≦ C < 80%) | E (E < 50%) | E (E < 50%) |
| Cc1nn(-c2cc3nc(SCc4cccc(Cl)c4)sc3cc2Cl)c(=O)n1C(F)F [Compound 4] | C (60 ≦ C < 80%) | B (80 ≦ B < 90%) | E (E < 50%) | E (E < 50%) | C (60 ≦ C < 80%) | C (60 ≦ C < 80%) |
| Cc1nn(-c2cc3nc(SCc4ccc(Cl)cc4)sc3cc2Cl)c(=O)n1C(F)F [Compound 5] | E (E < 50%) | A (90 ≦ A ≦ 100%) | B (80 ≦ B < 90%) | B (80 ≦ B < 90%) | E (E < 50%) | C (60 ≦ C < 80%) |
| Cc1nn(-c2cc3nc(SCc4ccc(Br)cc4)sc3cc2Cl)c(=O)n1C(F)F [Compound 6] | B (80 ≦ B < 90%) | B (80 ≦ B < 90%) | C (60 ≦ C < 80%) | E (E < 50%) | C (60 ≦ C < 80%) | B (80 ≦ B < 90%) |
| Cc1nn(-c2cc3nc(SCc4cccc(F)c4)sc3cc2Cl)c(=O)n1C(F)F [Compound 7] | E (E < 50%) | B (80 ≦ B < 90%) | C (60 ≦ C < 80%) | B (80 ≦ B < 90%) | B (80 ≦ B < 90%) | E (E < 50%) |
| Cc1nn(-c2cc3nc(SCc4ccc(F)cc4F)sc3cc2Cl)c(=O)n1C(F)F [Compound 8] | C (60 ≦ C < 80%) | C (60 ≦ C < 80%) | C (60 ≦ C < 80%) | B (80 ≦ B < 90%) | C (60 ≦ C < 80%) | E (E < 50%) |
| Cc1nn(-c2cc3nc(SCc4c(F)cccc4F)sc3cc2Cl)c(=O)n1C(F)F [Compound 9] | C (60 ≦ C < 80%) | B (80 ≦ B < 90%) | A (90 ≦ A ≦ 100%) | B (80 ≦ B < 90%) | E (E < 50%) | B (80 ≦ B < 90%) |
| Cc1nn(-c2cc3nc(SCc4csc(Cl)n4)sc3cc2F)c(=O)n1C(F)F [Compound 10] | C (60 ≦ C < 80%) | B (80 ≦ B < 90%) | A (90 ≦ A ≦ 100%) | C (60 ≦ C < 80%) | C (60 ≦ C < 80%) | B (80 ≦ B < 90%) |
| Cc1nn(-c2cc3nc(SCc4ccccc4)sc3cc2F)c(=O)n1C(F)F [Compound 11] | C (60 ≦ C < 80%) | B (80 ≦ B < 90%) | A (90 ≦ A ≦ 100%) | B (80 ≦ B < 90%) | C (60 ≦ C < 80%) | E (E < 50%) |
| Cc1nn(-c2cc3nc(SCc4ccc(F)cc4F)sc3cc2F)c(=O)n1C(F)F [Compound 12] | E (E < 50%) | A (90 ≦ A ≦ 100%) | C (60 ≦ C < 80%) | B (80 ≦ B < 90%) | B (80 ≦ B < 90%) | E (E < 50%) |
| Cc1nn(-c2cc3nc(SCc4cccc([N+](=O)[O-])c4)sc3cc2F)c(=O)n1C(F)F [Compound 13] | C (60 ≦ C < 80%) | A (90 ≦ A ≦ 100%) | B (80 ≦ B < 90%) | B (80 ≦ B < 90%) | C (60 ≦ C < 80%) | C (60 ≦ C < 80%) |
| Cc1ccccc1CSc1nc2cc(-n3nc(C)n(C(F)F)c3=O)c(F)cc2s1 [Compound 14] | C (60 ≦ C < 80%) | B (80 ≦ B < 90%) | A (90 ≦ A ≦ 100%) | C (60 ≦ C < 80%) | C (60 ≦ C < 80%) | B (80 ≦ B < 90%) |
| Cc1ccc(CSc2nc3cc(-n4nc(C)n(C(F)F)c4=O)c(F)cc3s2)cc1 [Compound 15] | B (80 ≦ B < 90%) | A (90 ≦ A ≦ 100%) | A (90 ≦ A ≦ 100%) | C (60 ≦ C < 80%) | B (80 ≦ B < 90%) | B (80 ≦ B < 90%) |
| Cc1ccc([N+](=O)[O-])c(CSc2nc3cc(-n4nc(C)n(C(F)F)c4=O)c(F)cc3s2)c1 [Compound 16] | C (60 ≦ C < 80%) | C (60 ≦ C < 80%) | B (80 ≦ B < 90%) | C (60 ≦ C < 80%) | B (80 ≦ B < 90%) | C (60 ≦ C < 80%) |
| COc1cccc(CSc2nc3cc(-n4nc(C)n(C(F)F)c4=O)c(F)cc3s2)c1 [Compound 17] | B (80 ≦ B < 90%) | A (90 ≦ A ≦ 100%) | A (90 ≦ A ≦ 100%) | E (E < 50%) | B (80 ≦ B < 90%) | C (60 ≦ C < 80%) |
| Cc1nn(-c2cc3nc(SCc4ccccc4F)sc3cc2F)c(=O)n1C(F)F [Compound 18] | C (60 ≦ C < 80%) | A (90 ≦ A ≦ 100%) | B (80 ≦ B < 90%) | A (90 ≦ A ≦ 100%) | B (80 ≦ B < 90%) | C (60 ≦ C < 80%) |
| Cc1nn(-c2cc3nc(SCc4cccc(F)c4)sc3cc2F)c(=O)n1C(F)F [Compound 19] | A (90 ≦ A ≦ 100%) | A (90 ≦ A ≦ 100%) | B (80 ≦ B < 90%) | B (80 ≦ B < 90%) | C (60 ≦ C < 80%) | E (E < 50%) |

Reference: patent publication US7666890B2, “Synthesis and herbicidal activity of 1- (2-substituted benzo[d]thiazol-5-yl)-1H-1,2,4-triazol-5(4H)-one derivatives” (Huazhong Normal University, priority 2007, dated 2010)
